Ki and IC50 data for 32 compounds are collected here from patent publication US9079866B2, “Flap modulators” (JANSSEN PHARMACEUTICA NV, priority 2013, dated 2015).

One experiment addresses human FLAP (Homo sapiens (Human), UniProt P20292). The experiment is described as follows: FLAP binding assay (HTRF format). The method, boiled down: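 Binding of compounds to FLAP read out as HTRF ratio. Values are the mean of two assay plates, each sample run in duplicate per plate.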
Experiment [1] deals with leukotriene pathway in human whole blood (LTB4 levels). The experiment is described as follows: Human whole blood assay (A23187-stimulated LTB4). As to conditions: Homo sapiens, read-out: LTB4 IC50 1:1. The experiment is classed as cell-based. Summed up:
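Blood (heparin) diluted 1:1 RPMI; compound pre-incubation 15 min, 37° Celsius; A23187 7 μg/mL, 30 min, 37° Celsius; plasma LTB4 by commercial kit. IC50 via 4-parameter equation.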

Where [2] appears, read: human FLAP wild type, HTRF format, average of two plates, duplicates.
[3] abbreviates: human whole blood diluted 1:1 in RPMI, A23187-stimulated LTB4.
Where [4] appears, read: human whole blood diluted 1:1, A23187-stimulated.

Where a name gives a salt, the structure may show the parent alone. Read-outs that look alike come from different tables or passages of the source.

human FLAP, sequence (P20292 whole entry): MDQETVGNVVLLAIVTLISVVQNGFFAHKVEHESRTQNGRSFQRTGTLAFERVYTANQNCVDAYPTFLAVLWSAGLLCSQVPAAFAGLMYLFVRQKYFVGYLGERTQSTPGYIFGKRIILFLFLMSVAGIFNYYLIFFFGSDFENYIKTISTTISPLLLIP

Broadly, the Ki is a dissociation constant, usually derived from enzyme kinetics or from competition with a known ligand. One may read the IC50 as the midpoint of a concentration-inhibition curve. `C[C@@H](O)CNS(=O)(=O)c1ccccc1-c1ccc(-c2cnc(N)nc2)c(F)c1` [Example 278, 4′-(2-Aminopyrimidin-5-yl)-3′-fluoro-N-[(2R)-2-hydroxypropyl]biphenyl-2-sulfonamide-trifluoroacetic acid salt]: the inhibitory constant (Ki) at human FLAP (setting [2]) was determined as 36 nM. In experiment [1] (setting [3]), the IC50 was 95 nM.

For the compound `Nc1cnc(-c2ccc(-c3ccccc3S(=O)(=O)N[C@@H](c3ccccc3)C(F)(F)F)cc2F)cn1` [Example 19, (S)-4′-(5-Aminopyrazin-2-yl)-3′-fluoro-N-[(1S)-2,2,2-trifluoro-1-phenylethyl]biphenyl-2-sulfonamide], the Ki at human FLAP (setting [2]) is 2 nM. The IC50 in experiment [1] (setting [3]) was found to be 50 nM.

Compound `Nc1ncc(-c2ccc(-c3cccnc3OC3CCOCC3)cc2F)cn1` [Example 654, 5-{2-Fluoro-4-[2-(tetrahydro-2H-pyran-4-yloxy)pyridin-3-yl]phenyl}pyrimidin-2-amine] showed an inhibitory constant (Ki) at human FLAP (wild type FLAP, HTRF format) of 130 nM. Besides, in experiment [1] (setting [4]), the IC50 came out at 1050 nM.

As for `C[C@@H](O)CNS(=O)(=O)c1ccccc1-c1ccc(-c2cnc(N)cn2)c(F)c1` [Example 97, (R)-4′-(5-aminopyrazin-2-yl)-3′-fluoro-N-(2-hydroxypropyl)-[1,1′-biphenyl]-2-sulfonamide], on human FLAP (setting [2]), the Ki came to 8 nM. In addition, the IC50 in experiment [1] (setting [3]) was found to be 42 nM.

On human FLAP (wild type FLAP, HTRF format), `Nc1ncc(-c2ccc(-c3ccccc3Oc3ccnc(C(F)(F)F)c3)cc2F)cn1` [Example 611, 5-(3-Fluoro-2′-{[2-(trifluoromethyl)pyridin-4-yl]oxy}biphenyl-4-yl)pyrimidin-2-amine] displayed a Ki of 249 nM. For the same compound, in experiment [1] (setting [4]), the IC50 was determined as 563 nM.

The compound `Nc1ncc(-c2ccc(-c3ccc(C(F)(F)F)cc3Oc3ncccn3)cn2)cn1` [Example 564, 5-{5-[2-(Pyrimidin-2-yloxy)-4-(trifluoromethyl)phenyl]pyrridn-2-yl}pyrimidin-2-amine] yielded a Ki at human FLAP (wild type FLAP, HTRF format) of 200 nM. For the same compound, in experiment [1] (setting [4]), the IC50 was 583 nM.

Consider `Nc1cnc(-c2ccc(-c3ccccc3S(=O)(=O)C3CCCC3)cc2F)cn1` [Example 195, 5-[2′-(Cyclopentylsulfonyl)-3-fluorobiphenyl-4-yl]pyrazin-2-amine], for which the affinity at human FLAP (setting [2]) corresponds to a Ki of 3 nM. The IC50 in experiment [1] (setting [3]) was determined as 93 nM.

With `CS(=O)(=O)c1ccccc1-c1ccc(-c2cnc3[nH]ccc3n2)c(F)c1` [Example 377, 2-[3-Fluoro-2′-(methylsulfonyl)biphenyl-4-yl]-5H-pyrrolo[2,3-b]pyrazine], the affinity at human FLAP (setting [2]) corresponds to a Ki of 33 nM. Moreover, the IC50 in experiment [1] (setting [3]) is 979 nM.

At human FLAP (wild type FLAP, HTRF format), `CNS(=O)(=O)c1ccccc1-c1ccc(-c2cnc(N)nc2)c(F)c1F` [Example 465, 4′-(2-Aminopyrimidin-5-yl)-2′,3′-difluoro-N-methylbiphenyl-2-sulfonamide trifluoroacetic acid salt] returned an inhibition constant Ki of 186 nM. Also, the IC50 in experiment [1] (setting [4]) worked out at 957 nM.

Regarding `CC(C)(C)S(=O)(=O)c1ncccc1-c1ccc(-c2cnc(N)nc2)c(F)c1` [Example 811, 5-(4-(2-(tert-Butylsulfonyl)pyridin-3-yl)-2-fluorophenyl)pyrimidin-2-amine formic acid salt], the Ki on human FLAP (read-out: FLAP Binding wild type HTRF Ki) stood at 315 nM. The IC50 in experiment [1] (setting [4]) came to 541 nM.

Turning to `Nc1cnc(-c2ccc(-c3ccccc3Sc3cc(N)ncn3)cc2F)cn1` [Example 215, 6-{[4′-(5-Aminopyrazin-2-yl)-3′-fluorobiphenyl-2-yl]sulfanyl}pyrimidin-4-amine hydrochloride], on human FLAP (setting [2]), the affinity corresponds to a Ki of 2 nM. Besides, in experiment [1] (setting [3]), the IC50 was 12 nM.

At human FLAP (setting [2]), `Nc1cnc(-c2ccc(-c3ccccc3S(=O)(=O)NCCO)cc2F)cn1` [Example 88, 4′-(5-Aminopyrazin-2-yl)-3′-fluoro-N-(2-hydroxyethyl)biphenyl-2-sulfonamide] displayed a Ki of 7 nM. Also, in experiment [1] (setting [3]), the IC50 came out at 36 nM.

For `Nc1cnc(-c2ccc(-c3ccccc3S(=O)(=O)NC[C@H](O)c3ccccc3)cc2F)cn1` [Example 117, (R)-4′-(5-Aminopyrazin-2-yl)-3′-fluoro-N-(2-hydroxy-2-phenylethyl)-[1,1′-biphenyl]-2-sulfonamide], affinity on human FLAP (setting [2]) was put at a Ki of 1 nM. Further, in experiment [1] (setting [3]), the IC50 worked out at 7 nM.

At human FLAP (wild type FLAP, HTRF format), `Nc1cnc(-c2ccc(-c3cccnc3OCC3CC3)cc2F)cn1` [Example 488, 5-{4-[2-(Cyclopropylmethoxy)pyridin-3-yl]-2-fluorophenyl}pyrazin-2-amine] yielded a Ki of 97 nM. The IC50 in experiment [1] (setting [4]) amounted to 1650 nM.

As to `N#Cc1nc(N)cnc1-c1ccc(-c2ccc(C(F)(F)F)cc2Oc2ncccn2)cc1F` [Example 746, 6-Amino-3-[3-fluoro-2′-(pyrimidin-2-yloxy)-4′-(trifluoromethyl)biphenyl-4-yl]pyrazine-2-carbonitrile], the affinity on human FLAP (wild type FLAP, HTRF format) corresponds to a Ki of 2 nM. Further, the IC50 in experiment [1] (setting [4]) stood at 137 nM.

In turn, `Nc1cnc(-c2ccc(-c3ccccc3Oc3ccnc(N)c3)cc2F)cn1` [Example 638, 5-{2′-[(2-Aminopyridin-4-yl)oxy]-3-fluorobiphenyl-4-yl}pyrazin-2-amine] yielded a Ki at human FLAP (wild type FLAP, HTRF format) of 1.4 nM. Further, the IC50 in experiment [1] (setting [4]) stood at 14.8 nM.

On to `Nc1cnc(-c2ccc(-c3ccccc3Oc3cc(N)ncn3)cc2F)cn1` [Example 535, 6-{[4′-(5-Aminopyrazin-2-yl)-3′-fluorobiphenyl-2-yl]oxy}pyrimidin-4-amine], for which affinity at human FLAP (wild type FLAP, HTRF format) was put at a Ki of 1 nM. The half-maximal inhibitory concentration (IC50) in experiment [1] (setting [4]) was 17 nM.

On human FLAP (wild type FLAP, HTRF format), `Nc1nccc(Oc2ccccc2-c2ccc(-c3cnc4[nH]ccc4c3)c(F)c2)n1` [Example 523, 4-{[3′-Fluoro-4′-(1H-pyrrolo[2,3-b]pyridin-5-yl)biphenyl-2-yl]oxy}pyrimidin-2-amine] gave a Ki of 1 nM. In experiment [1] (setting [4]), the IC50 was found to be 25 nM.

At human FLAP (wild type FLAP, HTRF format), `Cc1ccnc(Oc2ccccc2-c2ccc(-c3cnc(N)cn3)c(F)c2)n1` [Example 545, 5-{3-Fluoro-2′-[(4-methylpyrimidin-2-yl)oxy]biphenyl-4-yl}pyrazin-2-amine] yielded a Ki of 12 nM. Moreover, in experiment [1] (setting [4]), the IC50 turned out to be 50 nM.

On to `C[C@H](NS(=O)(=O)c1ccccc1-c1ccc(-c2cnc(N)nc2)nc1)C(F)(F)F` [Example 685, 2-[6-(2-Aminopyrimidin-5-yl)pyridin-3-yl]-N-[(1S)-2,2,2-trifluoro-1-methylethyl]benzenesulfonamide trifluoroacetic acid salt], for which affinity at human FLAP (wild type FLAP, HTRF format) was put at a Ki of 52.3 nM. In addition, the IC50 in experiment [1] (setting [4]) was determined as 115 nM.

As to `Nc1cnc(-c2ccc(-c3ccccc3S(=O)(=O)N3CCNC[C@@H]3CO)cc2F)cn1` [Example 146, (R)-(1-((4′-(5-Aminopyrazin-2-yl)-3′-fluoro-[1,1′-biphenyl]-2-yl)sulfonyl)piperazin-2-yl)methanol], affinity on human FLAP (setting [2]) was put at a Ki of 19 nM. In addition, the IC50 in experiment [1] (setting [3]) was 168 nM.

Compound `CC(C)COc1ncccc1-c1ccc(-c2cnc3[nH]ccc3n2)c(F)c1` [Example 398, 2-{2-Fluoro-4-[2-(2-methylpropoxy)pyridin-3-yl]phenyl}-5H-pyrrolo[2,3-b]pyrazine] had a Ki at human FLAP (wild type FLAP, HTRF format) of 34 nM. Besides, the IC50 in experiment [1] (setting [4]) came to 1130 nM.

The compound `CCN(CC)S(=O)(=O)c1ccccc1-c1ccc(-c2cnc3[nH]ccc3n2)c(F)c1` [Example 373, N,N-Diethyl-3′-fluoro-4′-(5H-pyrrolo[2,3-b]pyrazin-2-yl)biphenyl-2-sulfonamide] gave a Ki on human FLAP (setting [2]) of 1 nM. In addition, the half-inhibitory concentration (IC50) in experiment [1] (setting [3]) is 7 nM.

Turning to `CC(C)(CO)CNS(=O)(=O)c1ccccc1-c1ccc(-c2cnc(N)nc2)c(F)c1` [Example 251, 4′-(2-Aminopyrimidin-5-yl)-3′-fluoro-N-(3-hydroxy-2,2-dimethylpropyl)biphenyl-2-sulfonamide], at human FLAP (setting [2]), the Ki is 5 nM. The half-maximal inhibitory concentration (IC50) in experiment [1] (setting [3]) was 68 nM.

As for `Nc1cnc(-c2ccc(-c3ccccc3-c3cnc(N)nc3)cc2F)cn1` [Example 843, 5-[4′-(5-Aminopyrazin-2-yl)-3′-fluorobiphenyl-2-yl]pyrimidin-2-amine], the affinity on human FLAP (wild type FLAP, HTRF format), expressed as Ki, was 15.6 nM. The IC50 in experiment [1] (setting [4]) was 44.3 nM.

The compound `Nc1cnc(-c2ccc(-c3ccccc3S(=O)(=O)NCCc3ccccc3)cc2F)cn1` [Example 17, 4′-(5-Aminopyrazin-2-yl)-3′-fluoro-N-(2-phenylethyl)biphenyl-2-sulfonamide] showed a Ki at human FLAP (setting [2]) of 2 nM. Further, in experiment [1] (setting [3]), the half-inhibitory concentration (IC50) came to 25 nM.

As to `Nc1cnc(-c2ccc(-c3ccc(Br)cc3F)cc2F)cn1` [Example 696, 5-(4′-Bromo-2′,3-difluorobiphenyl-4-yl)pyrazin-2-amine], the Ki at human FLAP (wild type FLAP, HTRF format) is approximately 250 nM. For the same compound, in experiment [1] (setting [4]), the half-inhibitory concentration (IC50) was determined as 3270 nM.

As for `N#Cc1nc(N)ccc1-c1ccc(-c2ccccc2S(=O)(=O)C2CC2)cc1F` [Example 443, 6-Amino-3-(2′-(cyclopropylsulfonyl)-3-fluoro-[1,1′-biphenyl]-4-yl)picolinonitrile], the Ki on human FLAP (wild type FLAP, HTRF format) was found to be 343 nM. The IC50 in experiment [1] (setting [4]) turned out to be 3330 nM.

Regarding `Nc1ncc(-c2ccc(-c3ccccc3S(=O)(=O)N3CCS(=O)(=O)CC3)cc2F)cn1` [Example 264, 5-{2′-[(1,1-Dioxidothiomorpholin-4-yl)sulfonyl]-3-fluorobiphenyl-4-yl}pyrimidin-2-amine trifluoroacetic salt], the Ki at human FLAP (setting [2]) came out at 28 nM. The 50% inhibitory concentration (IC50) in experiment [1] (setting [3]) turned out to be 144 nM.

For `Nc1cnc(-c2ccc(-c3ccccc3S(=O)(=O)N[C@H]3CCCC[C@@H]3O)cc2F)cn1` (racemic) [Example 120, Racemic-(trans)-4′-(5-Aminopyrazin-2-yl)-3′-fluoro-N-(2-hydroxycyclohexyl)biphenyl-2-sulfonamide], at human FLAP (setting [2]), the affinity corresponds to a Ki of 1 nM. Further, the IC50 in experiment [1] (setting [3]) amounted to 17 nM.

`Nc1ncc(-c2ccc(-c3ccc(C(F)(F)F)cc3CN3CCOCC3)cn2)cn1` [Example 676, 5-{5-[2-(Morpholin-4-ylmethyl)-4-(trifluoromethyl)phenyl]pyridin-2-yl}pyrimidin-2-amine] registered a Ki on human FLAP (wild type FLAP, HTRF format) of 234 nM. Besides, in experiment [1] (setting [4]), the IC50 is 3710 nM.

With `Nc1cnc(-c2ccc(-c3ccccc3Oc3nccc(N)n3)cc2F)cn1` [Example 528, 2-{[4′-(5-Aminopyrazin-2-yl)-3′-fluorobiphenyl-2-yl]oxy}pyrimidin-4-amine], the Ki on human FLAP (wild type FLAP, HTRF format) worked out at 5 nM. Besides, in experiment [1] (setting [4]), the IC50 was determined as 34 nM.
